# Test results from patent publication US20070148124A1, “Cellulose and acrylic based polymers and the use thereof for the treatment of infectious diseases” (priority 2004, published 2007).
# Read-outs that look alike come from different tables or passages of the source.
# How the values were obtained:
# [1] = cited from earlier work
# [2] = test system: CCR5 tropic (JRCSF) strain of HIV-1; experiment: HIV-1 infection and replication in PBMCs, RT activity; format: cell-based; settings: seven days, CCR5 virus
# [3] = test system: dual tropic (BR/92/014) strain of HIV-1; experiment: as above; format: cell-based; settings: seven days, dual tropic virus
# [4] = test system: CXCR4 tropic (CMU06) strain of HIV-1; experiment: as above; format: cell-based; settings: seven days, CXCR4 virus
# HIV-1IIIB = experiment: microbe, parasite or virus in culture; format: cell-based
# [5] = test system: MAGI-R5 or HeLa CD4 LTR β-gal cells
# HIV-1BaL = experiment: Virus attachment assay; format: cell-based; settings: Assay Virus HIV-1BaL
# in vitro [6] = settings: human
# HIV-1SKI = experiment: CD4-dependent HIV transmission inhibition assay (cell-associated virus, GHOST cells); format: cell-based
# in vitro [7] = settings: human; remark: listed apart in the source
# HIV-1JR-CSF = experiment: CD4-dependent HIV transmission inhibition assay (cell-associated virus, GHOST cells); format: cell-based
# in vitro [8] = settings: human; remark: listed apart in the source
# [9] = Human immunodeficiency virus 1, CXCR4 Virus HIV-1SKI, cell-associated
# [10] = Human immunodeficiency virus 1, Assay Virus HIV-1JR-CSF
# [11] = CXCR4 Virus HIV-1SKI, cell-associated
molecule,measurement,setting,value
"D-mallic acid, L-mallic acid",pKa Values (first value),[1]; room temperature,3.4
same,pKa Values (second value),[1]; room temperature,5.2
Cc1cn([C@H]2C[C@H](N=[N+]=[N-])[C@@H](CO)O2)c(=O)[nH]c1=O [AZT],IC50,[2],1.48 nM
same,IC50,[3],0.27 nM
same,IC50,[4],< 0.1 nM
c1cc(CN2CCCNCCNCCCNCC2)ccc1CN1CCCNCCNCCCNCC1 [AMD 3100],IC50,HIV-1IIIB; Human immunodeficiency virus 1,1 nM
same,IC90,HIV-1IIIB; Human immunodeficiency virus 1,8 nM
same,CC50,[5]; human,> 10000 nM
same,IC50,HIV-1BaL; Human immunodeficiency virus 1,3790 nM
same,IC90,HIV-1BaL; Human immunodeficiency virus 1,> 10000 nM
same,CC50,in vitro [6],> 10000 nM
same,IC50,"HIV-1SKI; Human immunodeficiency virus 1, Pre-incubation pH: Standard Assay",10 nM
same,IC50,"HIV-1SKI; Human immunodeficiency virus 1, pH 4, Pre-incubation pH 4.0",1 nM
same,IC50,"HIV-1SKI; Human immunodeficiency virus 1, pH 5.85, Pre-incubation pH 5.85",6 nM
same,IC50,"HIV-1SKI; Human immunodeficiency virus 1, pH 6.5, Pre-incubation pH 6.5",80 nM
same,IC50,HIV-1SKI; [9],5 nM
same,IC90,HIV-1SKI; [9],60 nM
same,CC50,in vitro [7],> 10000 nM
same,IC50,HIV-1JR-CSF; [10],> 10000 nM
same,IC90,HIV-1JR-CSF; [10],> 10000 nM
same,CC50 at 4 h,in vitro [8],> 10000 nM
same,CC50 at 4 h,in vitro [8]; pH 4,4030 nM
same,CC50 at 4 h,in vitro [8]; pH 5.85,> 10000 nM
same,CC50 at 4 h,in vitro [8]; pH 6.5,> 10000 nM
hydroxypropyl methylcellulose trimellitate [HPMCT],CC50,GHOST cells; pH 4,0.38%
same,CC50,GHOST cells; pH 5.85,0.38%
same,CC50,GHOST cells; pH 6.5,0.39%
phthalate,pKa of the second (remaining dissociable) carboxylic acid group,[1]; moiety on the cellulose backbone,5.28
Cc1ccc(-c2ccc3c(c2)C=C(C(=O)Nc2ccc(C[N+](C)(C)C4CCOCC4)cc2)CCC3)cc1 [TAK 779],IC50,"HIV-1IIIB; Assay Virus HIV-1IIIB, read-out: IC50",> 200 nM
same,IC90,"HIV-1IIIB; Assay Virus HIV-1IIIB, read-out: IC90",> 200 nM
same,CC50,[5],> 200 nM
same,IC50,HIV-1BaL,< 0.002 nM
same,IC90,HIV-1BaL,0.04 nM
same,CC50,GHOST cells,> 10 nM
same,IC50,HIV-1SKI; [11],> 10 nM
same,IC90,HIV-1SKI; [11],> 10 nM
same,CC50,HeLa CD4 LTR β-gal cells,> 200 nM
same,IC50,HIV-1JR-CSF; Assay Virus HIV-1JR-CSF,0.002 nM
same,IC90,HIV-1JR-CSF; Assay Virus HIV-1JR-CSF,0.55 nM
